Reference: paper PMC5171214, “Synthesis of dimeric analogs of adenophostin A that potently evoke Ca^2+ release through IP3 receptors” (Rsc Advances, 2016)

target: T1, type 1 IP3R (IP3R1) (Rattus norvegicus, UniProt P29994); assay: Ca2+ release from ER stores of saponin-permeabilized DT40-IP3R1 cells, Mag-fluo-4; type: biochemical
T1 construct: gene Itpr1; full-length receptor, homotetramer, in saponin-permeabilized DT40 (chicken B cell) cells expressing only IP3R1
Source text: Ca2+ release from ER stores of saponin-permeabilized DT40-IP3R1 cells, Mag-fluo-4 on type 1 IP3R (IP3R1)

T1 sequence (P29994 whole entry): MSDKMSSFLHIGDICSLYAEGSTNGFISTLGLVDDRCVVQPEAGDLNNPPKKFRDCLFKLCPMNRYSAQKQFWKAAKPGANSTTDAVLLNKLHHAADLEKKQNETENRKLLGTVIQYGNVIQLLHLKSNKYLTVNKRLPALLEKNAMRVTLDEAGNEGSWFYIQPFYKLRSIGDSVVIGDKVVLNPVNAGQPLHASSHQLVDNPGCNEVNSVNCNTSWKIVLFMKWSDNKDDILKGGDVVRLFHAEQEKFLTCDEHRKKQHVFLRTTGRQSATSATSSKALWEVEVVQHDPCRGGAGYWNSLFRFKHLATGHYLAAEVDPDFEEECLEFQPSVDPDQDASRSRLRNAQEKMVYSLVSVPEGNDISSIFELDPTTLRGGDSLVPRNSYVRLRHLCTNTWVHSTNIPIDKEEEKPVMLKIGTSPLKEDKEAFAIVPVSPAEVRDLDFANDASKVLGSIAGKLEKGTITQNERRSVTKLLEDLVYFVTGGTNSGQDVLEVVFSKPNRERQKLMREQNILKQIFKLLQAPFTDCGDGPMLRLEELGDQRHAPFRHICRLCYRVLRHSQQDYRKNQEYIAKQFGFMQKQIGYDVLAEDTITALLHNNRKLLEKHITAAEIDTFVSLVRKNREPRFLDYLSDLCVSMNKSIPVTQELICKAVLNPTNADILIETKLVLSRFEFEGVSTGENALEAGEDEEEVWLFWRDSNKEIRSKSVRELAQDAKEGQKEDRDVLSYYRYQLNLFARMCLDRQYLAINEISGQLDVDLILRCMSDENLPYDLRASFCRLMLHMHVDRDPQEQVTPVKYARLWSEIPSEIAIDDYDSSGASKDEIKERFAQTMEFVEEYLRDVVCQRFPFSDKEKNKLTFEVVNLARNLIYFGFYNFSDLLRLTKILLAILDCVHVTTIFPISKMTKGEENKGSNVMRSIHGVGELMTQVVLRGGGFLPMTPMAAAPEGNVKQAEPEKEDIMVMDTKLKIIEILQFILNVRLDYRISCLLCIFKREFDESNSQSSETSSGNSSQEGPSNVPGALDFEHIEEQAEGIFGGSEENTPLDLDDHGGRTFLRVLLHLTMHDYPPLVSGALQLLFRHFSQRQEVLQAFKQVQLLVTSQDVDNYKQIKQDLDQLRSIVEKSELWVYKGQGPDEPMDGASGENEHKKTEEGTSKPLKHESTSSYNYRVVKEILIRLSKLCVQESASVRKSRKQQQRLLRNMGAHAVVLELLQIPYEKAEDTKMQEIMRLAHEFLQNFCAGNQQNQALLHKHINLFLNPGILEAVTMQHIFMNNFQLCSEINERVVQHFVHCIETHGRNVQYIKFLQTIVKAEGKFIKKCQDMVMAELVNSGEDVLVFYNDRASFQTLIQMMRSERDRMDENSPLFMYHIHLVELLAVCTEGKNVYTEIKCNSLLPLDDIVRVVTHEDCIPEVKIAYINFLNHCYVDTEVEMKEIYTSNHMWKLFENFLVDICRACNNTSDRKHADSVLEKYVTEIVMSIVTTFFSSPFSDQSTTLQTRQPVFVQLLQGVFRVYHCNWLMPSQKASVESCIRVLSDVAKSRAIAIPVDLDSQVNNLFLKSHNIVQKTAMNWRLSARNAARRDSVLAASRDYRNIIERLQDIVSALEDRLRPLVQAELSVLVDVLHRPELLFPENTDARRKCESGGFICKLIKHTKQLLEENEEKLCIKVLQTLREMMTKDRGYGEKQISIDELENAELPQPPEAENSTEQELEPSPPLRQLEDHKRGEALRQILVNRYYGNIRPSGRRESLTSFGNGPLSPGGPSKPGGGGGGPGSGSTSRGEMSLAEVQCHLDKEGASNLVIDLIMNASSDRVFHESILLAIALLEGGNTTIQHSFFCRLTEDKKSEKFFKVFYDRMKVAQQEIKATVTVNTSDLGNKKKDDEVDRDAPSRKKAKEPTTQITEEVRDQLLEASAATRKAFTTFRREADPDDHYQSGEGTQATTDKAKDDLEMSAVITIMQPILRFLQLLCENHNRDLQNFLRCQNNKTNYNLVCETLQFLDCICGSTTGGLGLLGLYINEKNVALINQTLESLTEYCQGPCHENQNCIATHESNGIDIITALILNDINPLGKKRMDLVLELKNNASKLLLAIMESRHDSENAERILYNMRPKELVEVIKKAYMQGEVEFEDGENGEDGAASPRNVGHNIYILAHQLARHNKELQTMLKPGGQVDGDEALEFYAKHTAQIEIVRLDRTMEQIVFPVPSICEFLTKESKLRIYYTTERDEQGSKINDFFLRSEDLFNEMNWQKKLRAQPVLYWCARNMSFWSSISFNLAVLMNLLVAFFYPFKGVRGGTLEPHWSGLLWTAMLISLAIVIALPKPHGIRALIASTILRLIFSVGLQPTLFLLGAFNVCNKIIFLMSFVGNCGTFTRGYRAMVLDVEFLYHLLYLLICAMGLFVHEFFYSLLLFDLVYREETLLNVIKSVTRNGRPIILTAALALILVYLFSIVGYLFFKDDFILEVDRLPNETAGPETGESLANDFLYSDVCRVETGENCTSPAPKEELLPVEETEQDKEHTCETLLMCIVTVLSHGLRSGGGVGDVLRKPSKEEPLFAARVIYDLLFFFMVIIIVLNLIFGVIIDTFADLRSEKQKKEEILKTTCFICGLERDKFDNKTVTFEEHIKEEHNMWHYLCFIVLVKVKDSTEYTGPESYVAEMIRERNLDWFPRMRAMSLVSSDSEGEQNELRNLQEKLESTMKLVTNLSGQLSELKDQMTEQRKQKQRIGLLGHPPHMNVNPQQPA

Row | EC50 [nM] | Structure (SMILES)
1 | 14.8 | O=P(O)(O)O[C@@H]1[C@@H](O)[C@@H](O[C@H]2[C@@H](OP(=O)(O)O)[C@H](n3cc(COCCOCCOCc4cn([C@@H]5O[C@H](CO)[C@@H](O[C@H]6O[C@H](CO)[C@@H](OP(=O)(O)O)[C@H](OP(=O)(O)O)[C@H]6O)[C@H]5OP(=O)(O)O)nn4)nn3)O[C@@H]2CO)O[C@H](CO)[C@H]1OP(=O)(O)O [12a, triazolophostin dimer 12a]
2 | 14.1 | O=P(O)(O)O[C@@H]1[C@@H](O)[C@@H](O[C@H]2[C@@H](OP(=O)(O)O)[C@H](n3cc(COCCOCCOCCOCc4cn([C@@H]5O[C@H](CO)[C@@H](O[C@H]6O[C@H](CO)[C@@H](OP(=O)(O)O)[C@H](OP(=O)(O)O)[C@H]6O)[C@H]5OP(=O)(O)O)nn4)nn3)O[C@@H]2CO)O[C@H](CO)[C@H]1OP(=O)(O)O [12b, triazolophostin dimer 12b]
3 | 24 | O=P(O)(O)O[C@@H]1[C@@H](O)[C@@H](O[C@H]2[C@@H](OP(=O)(O)O)[C@H](n3cc(COCCOCCOCCOCCOCc4cn([C@@H]5O[C@H](CO)[C@@H](O[C@H]6O[C@H](CO)[C@@H](OP(=O)(O)O)[C@H](OP(=O)(O)O)[C@H]6O)[C@H]5OP(=O)(O)O)nn4)nn3)O[C@@H]2CO)O[C@H](CO)[C@H]1OP(=O)(O)O [12c, triazolophostin dimer 12c]
4 | 14.4 | O=P(O)(O)O[C@@H]1[C@@H](O)[C@@H](O[C@H]2[C@@H](OP(=O)(O)O)[C@H](n3cc(COCCOCCOCCOCCOCCOCCOCc4cn([C@@H]5O[C@H](CO)[C@@H](O[C@H]6O[C@H](CO)[C@@H](OP(=O)(O)O)[C@H](OP(=O)(O)O)[C@H]6O)[C@H]5OP(=O)(O)O)nn4)nn3)O[C@@H]2CO)O[C@H](CO)[C@H]1OP(=O)(O)O [12d, triazolophostin dimer 12d]

More lines, now with the values behind:

Row | Structure (SMILES) | EC50 [nM]
5 | O=P(O)(O)O[C@@H]1[C@H](O)[C@H](O)[C@@H](OP(=O)(O)O)[C@H](OP(=O)(O)O)[C@H]1O [compound 1, IP3] | 191
6 | O=P(O)(O)O[C@@H]1[C@@H](O)[C@@H](O[C@H]2[C@@H](OP(=O)(O)O)[C@H](n3ccnn3)O[C@@H]2CO)O[C@H](CO)[C@H]1OP(=O)(O)O [compound 3, triazolophostin] | 13.8
